{"source": "paper PMC5218480", "about": "(PLoS ONE, 2017)", "tested_on": "MV-4-11 cells", "experiment": "Gene expression microarray analysis (Affymetrix PrimeView) and GSEA", "format": "cell-based, human", "set-up": "RFU PODN (11730768_x_at) / Fold change /veh PODN (11730768_x_at) / RFU LINC00158 (11744669_a_at) / Fold change /veh LINC00158 (11744669_a_at) / RFU DUSP10 (11751237_a_at) / Fold change /veh DUSP10 (11751237_a_at) / RFU ID3 (11757404_x_at) / Fold change /veh ID3 (11757404_x_at) / RFU PLEKHG5 (11737974_s_at) / Fold change /veh PLEKHG5 (11737974_s_at) / RFU LRRC4B (11730491_at) / Fold change /veh LRRC4B (11730491_at) / RFU GIMAP4 (11747438_a_at) / Fold change /veh GIMAP4 (11747438_a_at) / RFU KRT8 (11758183_x_at) / Fold change /veh KRT8 (11758183_x_at) / RFU CNN1 (11734310_a_at) / Fold change /veh CNN1 (11734310_a_at) / RFU VPS37D (11726825_at) / Fold change /veh VPS37D (11726825_at) / RFU C10orf10 (11716522_x_at) / Fold change /veh C10orf10 (11716522_x_at) / RFU KIR2DL2 /// KIR2DL4 /// KIR2DL5A /// KIR2DL5B /// KIR2DS1 /// KIR2DS2 /// KIR2DS3 /// KIR2DS4 /// KIR3DL3 /// KIR3DL3 /// KIR3DS1 (11738374_at) / Fold change /veh KIR2DL2 /// KIR2DL4 /// KIR2DL5A /// KIR2DL5B /// KIR2DS1 /// KIR2DS2 /// KIR2DS3 /// KIR2DS4 /// KIR3DL3 /// KIR3DL3 /// KIR3DS1 (11738374_at) / RFU C1QL1 (11718748_at) / Fold change /veh C1QL1 (11718748_at) / RFU TMPRSS4 (11747572_a_at) / Fold change /veh TMPRSS4 (11747572_a_at) / RFU HAMP (11756126_x_at) / Fold change /veh HAMP (11756126_x_at) / RFU RNFT2 (11725882_a_at) / Fold change /veh RNFT2 (11725882_a_at) / RFU NR4A2 (11747474_a_at) / Fold change /veh NR4A2 (11747474_a_at) / RFU ABCC12 (11746883_a_at) / Fold change /veh ABCC12 (11746883_a_at) / RFU TMEM136 (11760407_x_at) / Fold change /veh TMEM136 (11760407_x_at) / RFU CLDN22 /// WWC2 (11732394_at) / Fold change /veh CLDN22 /// WWC2 (11732394_at) / RFU HLA-DPB1 (11760878_x_at) / Fold change /veh HLA-DPB1 (11760878_x_at) / RFU SPINT1 (11716480_a_at) / Fold change /veh SPINT1 (11716480_a_at) / RFU GAP43 (11754022_s_at) / Fold change /veh GAP43 (11754022_s_at) / RFU A4GNT (11735810_at) / Fold change /veh A4GNT (11735810_at) / RFU PRB3 (11715151_x_at) / Fold change /veh PRB3 (11715151_x_at) / RFU TUBB4B (11761932_at) / Fold change /veh TUBB4B (11761932_at) / RFU CAPN14 (11732068_a_at) / Fold change /veh CAPN14 (11732068_a_at) / RFU TMCC2 (11721928_a_at) / Fold change /veh TMCC2 (11721928_a_at) / RFU IRGQ (11745062_a_at) / Fold change /veh IRGQ (11745062_a_at) / RFU FAM174B (11720279_a_at) / Fold change /veh FAM174B (11720279_a_at) / RFU TMPRSS4 (11748680_a_at) / Fold change /veh TMPRSS4 (11748680_a_at) / RFU FAM212B (11763350_a_at) / Fold change /veh FAM212B (11763350_a_at) / RFU PLEKHG5 (11743358_a_at) / Fold change /veh PLEKHG5 (11743358_a_at) / RFU ZSCAN30 (11745921_a_at) / Fold change /veh ZSCAN30 (11745921_a_at) / RFU CMKLR1 (11741424_a_at) / Fold change /veh CMKLR1 (11741424_a_at) / RFU LOC101060620 /// MAPK8IP1 (11723275_at) / Fold change /veh LOC101060620 /// MAPK8IP1 (11723275_at) / RFU SPTSSB (11747773_x_at) / Fold change /veh SPTSSB (11747773_x_at) / RFU PRSS12 (11739890_at) / Fold change /veh PRSS12 (11739890_at) / RFU BIN1 (11741810_x_at) / Fold change /veh BIN1 (11741810_x_at) / RFU WNT11 (11732464_a_at) / Fold change /veh WNT11 (11732464_a_at) / RFU C10orf10 (11716521_a_at) / Fold change /veh C10orf10 (11716521_a_at) / RFU C5orf56 (11738089_at) / Fold change /veh C5orf56 (11738089_at) / RFU CYB561 (11721691_x_at) / Fold change /veh CYB561 (11721691_x_at) / RFU ANKRD19P (11752326_a_at) / Fold change /veh ANKRD19P (11752326_a_at) / RFU OR2T12 /// OR2T33 /// OR2T8 (11738714_s_at) / Fold change /veh OR2T12 /// OR2T33 /// OR2T8 (11738714_s_at) / RFU VCAN (11748164_a_at) / Fold change /veh VCAN (11748164_a_at) / RFU JSRP1 (11732532_at) / Fold change /veh JSRP1 (11732532_at) / RFU KRTAP10-11 (11738290_x_at) / Fold change /veh KRTAP10-11 (11738290_x_at) / RFU MYO3A (11730013_a_at) / Fold change /veh MYO3A (11730013_a_at) / RFU EBF3 (11725865_a_at) / Fold change /veh EBF3 (11725865_a_at) / RFU CAMK2N1 (11719241_x_at) / Fold change /veh CAMK2N1 (11719241_x_at) / RFU C5orf56 (11738088_a_at) / Fold change /veh C5orf56 (11738088_a_at) / RFU OLFML3 (11715873_a_at) / Fold change /veh OLFML3 (11715873_a_at) / RFU LOC100653217 /// NTM (11731650_a_at) / Fold change /veh LOC100653217 /// NTM (11731650_a_at) / RFU MAPK11 (11762145_a_at) / Fold change /veh MAPK11 (11762145_a_at) / RFU FIZ1 (11724087_x_at) / Fold change /veh FIZ1 (11724087_x_at) / RFU OASL (11726364_x_at) / Fold change /veh OASL (11726364_x_at) / RFU SOX15 (11748057_x_at) / Fold change /veh SOX15 (11748057_x_at) / RFU CD79A (11719716_a_at) / Fold change /veh CD79A (11719716_a_at) / RFU HIST1H1D (11736915_at) / Fold change /veh HIST1H1D (11736915_at) / RFU CASKIN2 (11723855_a_at) / Fold change /veh CASKIN2 (11723855_a_at) / RFU LOC730098 (11760151_x_at) / Fold change /veh LOC730098 (11760151_x_at) / RFU OR4N2 (11742367_at) / Fold change /veh OR4N2 (11742367_at) / RFU PRRT2 (11749266_a_at) / Fold change /veh PRRT2 (11749266_a_at) / RFU SNX32 (11753110_a_at) / Fold change /veh SNX32 (11753110_a_at) / RFU CDHR5 (11726645_a_at) / Fold change /veh CDHR5 (11726645_a_at) / RFU RCAN1 (11760418_a_at) / Fold change /veh RCAN1 (11760418_a_at) / RFU FAM167A (11723789_a_at) / Fold change /veh FAM167A (11723789_a_at) / RFU FAM26E (11764081_at) / Fold change /veh FAM26E (11764081_at) / RFU ISYNA1 (11749810_s_at) / Fold change /veh ISYNA1 (11749810_s_at) / RFU ACY1 (11761880_at) / Fold change /veh ACY1 (11761880_at) / RFU 11764098_at / Fold change /veh 11764098_at / RFU SAMD14 (11745864_x_at) / Fold change /veh SAMD14 (11745864_x_at) / RFU NPB (11741838_a_at) / Fold change /veh NPB (11741838_a_at) / RFU TMPRSS6 (11731388_a_at) / Fold change /veh TMPRSS6 (11731388_a_at) / RFU KRTAP10-2 (11738614_at) / Fold change /veh KRTAP10-2 (11738614_at) / RFU ARHGAP8 /// PRR5-ARHGAP8 (11727945_x_at) / Fold change /veh ARHGAP8 /// PRR5-ARHGAP8 (11727945_x_at) / RFU KRTAP5-7 /// NADSYN1 (11734609_at) / Fold change /veh KRTAP5-7 /// NADSYN1 (11734609_at) / RFU RASL12 (11751679_a_at) / Fold change /veh RASL12 (11751679_a_at) / RFU CDKN2B (11736163_a_at) / Fold change /veh CDKN2B (11736163_a_at) / RFU PRF1 (11729649_at) / Fold change /veh PRF1 (11729649_at) / RFU, ZNF638 /// ZNF638-IT1 / Fold change vs veh, ZNF638 /// ZNF638-IT1 / RFU, PANK3 / Fold change vs veh, PANK3 / RFU, SH3YL1 / Fold change vs veh, SH3YL1 / RFU, ZEB2 / Fold change vs veh, ZEB2 / RFU, NRIP1 / Fold change vs veh, NRIP1 / RFU, PTTG1IP / Fold change vs veh, PTTG1IP / RFU, CAPN2 / Fold change vs veh, CAPN2 / RFU, MED14 / Fold change vs veh, MED14 / RFU, SNORA58 / Fold change vs veh, SNORA58 / RFU, C1orf63 / Fold change vs veh, C1orf63 / RFU, LRRFIP1 / Fold change vs veh, LRRFIP1 / RFU, NDUFAF7 / Fold change vs veh, NDUFAF7 / RFU, SLC12A2 / Fold change vs veh, SLC12A2 / RFU, IBTK / Fold change vs veh, IBTK / RFU, ESF1 / Fold change vs veh, ESF1 / Fold change vs veh, TMEM50B / RFU, TAOK1 / Fold change vs veh, TAOK1 / RFU, ACBD3 / Fold change vs veh, ACBD3 / RFU, TMA16 / Fold change vs veh, TMA16 / RFU, RWDD3 / Fold change vs veh, RWDD3 / RFU, BCAT1 / Fold change vs veh, BCAT1 / RFU, EDEM3 / Fold change vs veh, EDEM3 / RFU, TMEM33 / Fold change vs veh, TMEM33 / RFU, WDR75 / Fold change vs veh, WDR75 / RFU, AHCTF1 / Fold change vs veh, AHCTF1 / RFU, TFRC / Fold change vs veh, TFRC / RFU, ZDHHC17 / Fold change vs veh, ZDHHC17 / RFU, NOM1 / Fold change vs veh, NOM1 / RFU, ARL8B / Fold change vs veh, ARL8B / RFU, ZBTB11 / Fold change vs veh, ZBTB11 / RFU, TAMM41 / Fold change vs veh, TAMM41 / RFU, KIAA1704 /// LOC100996395 / Fold change vs veh, KIAA1704 /// LOC100996395 / RFU, ING1 / Fold change vs veh, ING1 / RFU, TRMT61B / Fold change vs veh, TRMT61B / RFU, FUBP3 / Fold change vs veh, FUBP3 / RFU, TP53 / Fold change vs veh, TP53 / RFU, TNKS2 / Fold change vs veh, TNKS2 / RFU, ZFP14 / Fold change vs veh, ZFP14 / RFU, ACTR2 / Fold change vs veh, ACTR2 / RFU, PPP3R1 / Fold change vs veh, PPP3R1 / RFU, PIK3R1 / Fold change vs veh, PIK3R1 / RFU, HNRNPA1 / Fold change vs veh, HNRNPA1 / RFU, RNF170 / Fold change vs veh, RNF170 / RFU, ZNF28 / Fold change vs veh, ZNF28 / RFU, RNGTT / Fold change vs veh, RNGTT / RFU, OGT / Fold change vs veh, OGT / RFU, BRD1 / Fold change vs veh, BRD1 / RFU, MARS / Fold change vs veh, MARS / RFU, ZNF655 / Fold change vs veh, ZNF655 / RFU, FAHD1 / Fold change vs veh, FAHD1 / RFU, BDP1 / Fold change vs veh, BDP1 / RFU, LRRCC1 / Fold change vs veh, LRRCC1 / RFU, ARID1A / Fold change vs veh, ARID1A / RFU, ZNF146 / Fold change vs veh, ZNF146 / RFU, ZNF330 / Fold change vs veh, ZNF330 / RFU, GPN3 / Fold change vs veh, GPN3 / RFU, C9orf123 / Fold change vs veh, C9orf123 / RFU, N4BP2L2 / Fold change vs veh, N4BP2L2 / RFU, ARFIP1 / Fold change vs veh, ARFIP1 / RFU, FAM179B / Fold change vs veh, FAM179B / RFU, BCL10 / Fold change vs veh, BCL10 / RFU, UHRF1BP1L / Fold change vs veh, UHRF1BP1L / RFU, BET1 / Fold change vs veh, BET1 / RFU, CNOT2 / Fold change vs veh, CNOT2 / RFU, ZNF268 / Fold change vs veh, ZNF268 / Fold change vs veh, ZNF507 / RFU, DGCR2 / Fold change vs veh, DGCR2 / RFU, WDSUB1 / Fold change vs veh, WDSUB1 / Fold change vs veh, HSP90B1 /// MIR3652 / RFU, ADSS / Fold change vs veh, ADSS / RFU, GK / Fold change vs veh, GK / RFU, ZNF148 / Fold change vs veh, ZNF148 / RFU, TAF9 / Fold change vs veh, TAF9 / RFU, SLC1A5 / Fold change vs veh, SLC1A5 / RFU, SLMO2 / Fold change vs veh, SLMO2 / RFU, ABCC4 / Fold change vs veh, ABCC4 / RFU, LOC101060439 /// RAP1B / Fold change vs veh, LOC101060439 /// RAP1B / RFU, RFX7 / Fold change vs veh, RFX7 / RFU, GTPBP10 / Fold change vs veh, GTPBP10 / RFU, CNEP1R1 / Fold change vs veh, CNEP1R1 / RFU, BIVM-ERCC5 /// ERCC5 / Fold change vs veh, BIVM-ERCC5 /// ERCC5 / RFU, ILF3 / Fold change vs veh, ILF3 / RFU 11762660_at / Fold change /veh 11762660_at / RFU VCAN (11757783_s_at) / Fold change /veh VCAN (11757783_s_at) / RFU DDX43 (11728927_at) / Fold change /veh DDX43 (11728927_at) / RFU KRT8 (11758188_x_at) / Fold change /veh KRT8 (11758188_x_at) / RFU NKD1 (11759106_at) / Fold change /veh NKD1 (11759106_at) / RFU SRD5A1 (11742802_a_at) / Fold change /veh SRD5A1 (11742802_a_at) / RFU TPSAB1 /// TPSB2 (11721975_s_at) / Fold change /veh TPSAB1 /// TPSB2 (11721975_s_at) / RFU GSTM3 (11746129_a_at) / Fold change /veh GSTM3 (11746129_a_at) / RFU IL23R (11737362_x_at) / Fold change /veh IL23R (11737362_x_at) / RFU TMEM51 (11727254_a_at) / Fold change /veh TMEM51 (11727254_a_at) / RFU PIWIL2 (11732686_x_at) / Fold change /veh PIWIL2 (11732686_x_at) / RFU ORM1 (11744905_x_at) / Fold change /veh ORM1 (11744905_x_at) / RFU CCDC152 (11743942_at) / Fold change /veh CCDC152 (11743942_at) / RFU ECM1 (11717891_a_at) / Fold change /veh ECM1 (11717891_a_at) / RFU IL23R (11748794_a_at) / Fold change /veh IL23R (11748794_a_at) / RFU TNFAIP8L3 (11732012_x_at) / Fold change /veh TNFAIP8L3 (11732012_x_at) / RFU MBOAT4 (11741988_at) / Fold change /veh MBOAT4 (11741988_at) / RFU 11764193_at / Fold change /veh 11764193_at / RFU TMEM53 (11763286_at) / Fold change /veh TMEM53 (11763286_at) / RFU MAGEB2 (11727129_at) / Fold change /veh MAGEB2 (11727129_at) / RFU TMEM200A (11744735_a_at) / Fold change /veh TMEM200A (11744735_a_at) / RFU CCDC152 (11751479_a_at) / Fold change /veh CCDC152 (11751479_a_at) / RFU FAM211A (11726209_a_at) / Fold change /veh FAM211A (11726209_a_at) / RFU RGS16 (11746705_a_at) / Fold change /veh RGS16 (11746705_a_at) / RFU VCAN (11755009_s_at) / Fold change /veh VCAN (11755009_s_at) / RFU RHOB (11743442_s_at) / Fold change /veh RHOB (11743442_s_at) / RFU RGS16 (11720943_a_at) / Fold change /veh RGS16 (11720943_a_at) / RFU RGS16 (11720944_at) / Fold change /veh RGS16 (11720944_at) / RFU, VPS4B / Fold change vs veh, VPS4B / RFU, CREB1 / Fold change vs veh, CREB1 / RFU, DNAJC13 / Fold change vs veh, DNAJC13 / RFU, GNAQ / Fold change vs veh, GNAQ / RFU, CDK5R1 / Fold change vs veh, CDK5R1 / RFU, ZRANB3 / Fold change vs veh, ZRANB3 / RFU, CUL4A / Fold change vs veh, CUL4A / RFU, CCNY / Fold change vs veh, CCNY / RFU, UFL1 / Fold change vs veh, UFL1 / RFU, COG3 / Fold change vs veh, COG3 / RFU, DIAPH2 / Fold change vs veh, DIAPH2 / RFU, SKA2 / Fold change vs veh, SKA2 / RFU, AFF3 / Fold change vs veh, AFF3 / RFU, LMF1 / Fold change vs veh, LMF1 / RFU, IPO11 / Fold change vs veh, IPO11 / RFU, DFFB / Fold change vs veh, DFFB / RFU, FOXP1 / Fold change vs veh, FOXP1 / RFU, CARD8 / Fold change vs veh, CARD8 / RFU, STRN3 / Fold change vs veh, STRN3 / RFU, ADK / Fold change vs veh, ADK / RFU, RASSF2 / Fold change vs veh, RASSF2 / RFU, WIPF1 / Fold change vs veh, WIPF1 / RFU, LARP1B / Fold change vs veh, LARP1B / RFU, RASA1 / Fold change vs veh, RASA1 / RFU, RB1 / Fold change vs veh, RB1 / RFU, PPFIA1 / Fold change vs veh, PPFIA1 / RFU, MAT2A / Fold change vs veh, MAT2A / RFU, CCT5 / Fold change vs veh, CCT5 / RFU, WDR92 / Fold change vs veh, WDR92 / RFU, CUX1 / Fold change vs veh, CUX1 / RFU, TTC7A / Fold change vs veh, TTC7A / RFU, TMEM135 / Fold change vs veh, TMEM135 / RFU, DEPTOR / Fold change vs veh, DEPTOR / RFU, CPM / Fold change vs veh, CPM / RFU, DNAJB6 / Fold change vs veh, DNAJB6 / RFU, CACNA2D3 / Fold change vs veh, CACNA2D3 / RFU, DTX4 / Fold change vs veh, DTX4 / RFU, TFCP2 / Fold change vs veh, TFCP2 / RFU, GMCL1 /// GMCL1P1 / Fold change vs veh, GMCL1 /// GMCL1P1 / RFU, AEBP2 / Fold change vs veh, AEBP2 / RFU, SNHG1 /// SNORD22 /// SNORD25 /// SNORD26 /// SNORD27 /// SNORD28 /// SNORD29 /// SNORD31 / Fold change vs veh, SNHG1 /// SNORD22 /// SNORD25 /// SNORD26 /// SNORD27 /// SNORD28 /// SNORD29 /// SNORD31 / Fold change (Aza/veh), C12orf56 (ProbeSet 11735607_a_at) / Fold change (ACY-1035/veh), C12orf56 (ProbeSet 11735607_a_at) / Fold change (Aza/veh), FGFR1OP (ProbeSet 11751329_s_at) / Fold change (ACY-1035/veh), FGFR1OP (ProbeSet 11751329_s_at) / Fold change (Aza/veh), VPS36 (ProbeSet 11739960_a_at) / Fold change (ACY-1035/veh), VPS36 (ProbeSet 11739960_a_at) / RFU SYPL1 (11715823_x_at) / Fold change /veh SYPL1 (11715823_x_at) / RFU IGFBP7 (11715501_s_at) / Fold change /veh IGFBP7 (11715501_s_at) / RFU REEP3 (11722064_at) / Fold change /veh REEP3 (11722064_at) / RFU IGLL1 (11728026_x_at) / Fold change /veh IGLL1 (11728026_x_at): dose or concentration left out as unconfirmed", "settings": "ProbeSet 11743362_s_at; LIST B", "data": [{"smiles": "Nc1ccc(-c2cccs2)cc1NC(=O)c1ccc2c(c1)cc(C1CC1)n2CCN1CCOCC1", "note": "[ACY-1035]", "values": [{"measurement": "Fold change vs veh, ADSS", "value": 0.95}]}]}
